The source of these data is US20260034116A1, “CANCER COMBINATION THERAPY INCLUDING A BCL-2 INHIBITOR” (RYVU THERAPEUTICS S.A., priority 2022, published 2026).

Like-named read-outs stand apart in the source and are kept apart here.

Data set [1] relates to MOLM-13 cells (FLT3 ITD). The data set can be described thus: in vitro standard cytotoxicity experiment (MTS), 72 h, MEN with S65487 or AZD4320. Particulars: single agent. The class given is cell-based, human. How it is done:
(§1) In an in vitro standard cytotoxicity experiment, two AML cell lines (MOLM-13 [FLT3 ITD] and MV4-11 [FLT3 ITD]) were treated for 72 hours with MEN and S65487 either as a single agent or in combination.
(§2) In an in vitro standard cytotoxicity experiment, two AML cell lines (MOLM-13 [FLT3 ITD] and MV4-11 [FLT3 ITD]) were treated for 72 hours with MEN and AZD4320 either as a single agent or in combination.
(§3) Human acute myeloid leukemia cell lines MV4-11 and MOLM-13 were obtained from DSMZ, Braunschweig, Germany (ACC102 and ACC554). MV4-11 cells were cultured in RPMI 1640 medium (Gibco, Life Technologies, Carlsbad, CA, USA) supplemented with 10% fetal bovine serum (FBS) (Sigma, Saint Louis, CA, USA). MOLM-13 cells were grown in RPMI with 20% FBS. All cells were incubated at 37° C., 5% CO2, 80% relative humidity.
(§4) MEN1703 (alternatively referred to as “Men”, “MEN”, “MEN1703” or “SEL24/MEN1703”), in the HCl-salt form (CAS number 2769008-22-) with the IUPAC name 5,6-dibromo-4-nitro-2-(piperidin-4-yl)-1-(propan-2-yl)-1H-1,3-benzodiazole-4-amine hydrochloride (batch no. A/2201/24/1)), synthesized at Aptuit (VR); AZD4320 from MedChem Express, Monmouth Junction, NJ, USA, batch no. 64354) and S65487 from MedChem Express, Monmouth Junction, NJ, USA were dissolved in DMSO, divided into aliquots and stored at −80° C. until use. Stock solutions were added at appropriate concentration in culture medium before the addition to cells.
(§5) For cytotoxicity studies cells were seeded at appropriate density (50,000 cells/well) prior to addition of MEN and Quiz at day 0. The concentration range was previously identified in single agent cytotoxicity assays for the same time points in order to include in the combination experiment the IC10, IC25, IC50 and IC75 values for each drug and for each AML cell lines (see Tables 4 to 7). After 72 hours, CellTiter 96 Aqueous One Solution Reagent (MTS) (Promega, Madison. WI, USA) was added to assess the cell viability. […] was measured 4 h later using Tecan Infinite M200 (Tecan Trading AG, Switzerland), recording absorbance at 490 nm. Quantitative measurement of synergism/antagonism was evaluated with Combination Index (CI) on the Fraction affected (Fa) using CompuSyn (ComboSyn, Inc. Paramus, NJ, USA) (Chou TC, 2006).

In data set [2] the test system is MV4-11 cells (FLT3 ITD). The description is as above. In kind it is cell-based, human. Conditions: single agent. How it is done:
as §1, §2, §3, §4, §5

In data set [3] the test system is MOLM-13 cells (FLT3 ITD). The data set can be described thus: in vitro standard cytotoxicity assay (MTS), Ven and/or 5-Aza 48 h followed by Men 24 h. In kind it is cell-based, human. Conditions: MOLM13 cells, single agent cytotoxic assay, same time points as combination; for IC50: read-out: IC50 dose level. How it is done:
(§6) In an in vitro standard cytotoxicity assay, three AML cell lines (KG1 [FLT3 wt], MV4-11 [FLT3 ITD] and MOLM-13 [FLT3 ITD]) were treated with Ven and/or 5-Aza for 48 hours, followed by Men treatment for additional 24 hours. […] In MOLM13 cells (FLT3 ITD), the CI of the triple combination was similar to the CIs of the Men-Ven and the VenAza combinations (see Table 3).
as §3, with “lines KG-1,” for “lines”, “(ACC14, ACC102” for “(ACC102”, “ACC554). KG-1 and” for “ACC554).”, “humidity. The human acute myeloid leukemia cell line MOLM-16 was obtained from DSMZ, Braunschweig, Germany (cell line number ACC-555. MOLM-16 cells were grown in RPMI with 20% FBS (Sigma, Saint Louis, CA, USA). Cells were incubated at 37° C., 5% CO2, 80% relative humidity.” for “humidity.”
(§7) Men (alternatively referred to as “MEN1703”, in the HCI-salt form (CAS number 2769008-22-) with the IUPAC name 5,6-dibromo-4-nitro-2-(piperidin-4-yl)-1-(propan-2-yl)-1H-1,3-benzodiazole-4-amine hydrochloride (batch no. A/2201/24/1)), synthesized at Aptuit (VR) and Venetoclax (alternatively referred to as “Ven” or “ABT-199”, ChemCruz no. SC-472284A) were dissolved in DMSO, divided into aliquots and stored at-80° C. until use. Stock solutions were added at appropriate concentration in culture medium before the addition to cells. […] A stock solution was added at appropriate concentration in culture medium before the addition to cells.
(§8) For cytotoxicity studies cells were seeded at appropriate density (50.000 cells/well) prior to addition of Ven and 5-Aza at day 0. 5-Aza was added every 24 hours due to degradation (Hollen-bach PW, 2010 and Chang E, 2016). Then, after 48 hours, Men was added to cultured cells for the final 24 h (overall, a period of 72 h was tested). The concentration range was previously identified in single agent cytotoxic assay for the same time points in order to include in the combination experiment the IC10, IC25, IC50 and IC75 values for each drug and for each AML cell lines (see Tables 1 to 3). All possible combinations were assessed: Men+Ven, Ven+5-Aza, Men+5-Aza and men+5-Aza+Ven (mav). After 72 hours, CellTiter 96 Aqueous One Solution Reagent (MTS) (Promega, Madison. WI, USA) was added to assess the cell viability. […] was measured 4h later using Tecan Infinite M200 (Tecan Trading AG, Switzerland), recording absorbance at 490 nm. Quantitative measurement of synergism/antagonism was evaluated with Combination Index (CI) on the Fraction affected (Fa) using CompuSyn (ComboSyn, Inc. Paramus, NJ, USA) (Chou TC, 2006).

Data set [4] concerns MV4-11 cells (FLT3 ITD). The data set is described as above. Conditions: single agent cytotoxic assay, same time points as combination; for IC50: read-out: IC50 dose level. The class given is cell-based, human. How it is done:
as §6
as §3, with “lines KG-1,” for “lines”, “(ACC14, ACC102” for “(ACC102”, “ACC554). KG-1 and” for “ACC554).”, “humidity. The human acute myeloid leukemia cell line MOLM-16 was obtained from DSMZ, Braunschweig, Germany (cell line number ACC-555. MOLM-16 cells were grown in RPMI with 20% FBS (Sigma, Saint Louis, CA, USA). Cells were incubated at 37° C., 5% CO2, 80% relative humidity.” for “humidity.”
as §7, §8

Data set [5] concerns KG1 cells (FLT3 wt). Described as above. In kind it is cell-based, human. Conditions: same time points as combination; for IC50: read-out: IC50 dose level. How it is done:
as §6
as §3, with “lines KG-1,” for “lines”, “(ACC14, ACC102” for “(ACC102”, “ACC554). KG-1 and” for “ACC554).”, “humidity. The human acute myeloid leukemia cell line MOLM-16 was obtained from DSMZ, Braunschweig, Germany (cell line number ACC-555. MOLM-16 cells were grown in RPMI with 20% FBS (Sigma, Saint Louis, CA, USA). Cells were incubated at 37° C., 5% CO2, 80% relative humidity.” for “humidity.”
as §7, §8

Data set [6] concerns broad panel of AML cell lines in xenograft models. Particulars: in vivo; cited from earlier work.
Data set [7] has as its system AML. Conditions: single agent in AML treatment; cited from earlier work.
[8] abbreviates: Homo sapiens, KG-1, single agent cytotoxic assay.

Turning to `CN(CCO)CC[C@H](CSc1ccccc1)Nc1ccc(S(=O)(=O)NC(=O)c2ccc(N3CCC([C@@H](O)c4ccccc4-c4ccc(Cl)cc4)CC3)cc2)cc1S(=O)(=O)C(F)(F)F` [AZD4320], in data set [1], the IC10 is 3.4 nM, the IC25 is 11 nM, the IC50 turned out to be 37 nM and the IC75 amounted to 120 nM. Further, in data set [2], the IC10 turned out to be 0.65 nM, the IC25 worked out at 1.3 nM, the IC50 stood at 2.7 nM and the IC75 worked out at 5.5 nM.
For `Nc1ncn([C@@H]2O[C@H](CO)[C@@H](O)[C@H]2O)c(=O)n1` [Aza, 5-Azacitidine], the IC50 in data set [3] (Homo sapiens, MOLM-13) was found to be 960 nM; in data set [4] (Homo sapiens) it was 650 nM; in data set [5] (setting [8]), 760 nM. The IC10 dose level in data set [3] was 83 nM; in data set [4], 140 nM; in data set [5] (single agent cytotoxic assay), 97 nM. The IC25 dose level was found to be 280 nM in data set [3], 300 nM in data set [4] and 270 nM in data set [5] (single agent cytotoxic assay). For the same compound, the results for the IC75 dose level in data set [3], in data set [4] and in data set [5] (single agent cytotoxic assay) were 3280 nM, 1410 nM and 2150 nM, respectively.
Regarding `CC(C)n1c(C2CCNCC2)nc2c([N+](=O)[O-])c(Br)c(Br)cc21` [Men, 5,6-dibromo-4-nitro-2-(piperidin-4-yl)-1-(pro-pan-2-yl)-1H-1,3-benzodiazole], the “growth of AML cell lines in xenograft models” value in data set [6] is on record as “inhibit the growth of a broad panel of AML cell lines in xenograft models”. Moreover, in data set [1], the IC10 was 87.29 nM, the IC25 was determined as 211.1 nM, the IC50 came out at 510 nM and the IC75 came to 1234 nM. Besides, in data set [2], the IC10 worked out at 13.15 nM, the IC25 was 35 nM, the IC50 worked out at 93 nM and the IC75 turned out to be 248.6 nM. Further, in data set [3], the IC10 dose level came out at 40 nM, the IC25 dose level amounted to 280 nM, the IC75 dose level was 10880 nM and the IC50 is 1730 nM. Besides, in data set [4], the IC10 dose level was 6 nM, the IC25 dose level came to 48 nM, the IC75 dose level came to 2770 nM and the IC50 stood at 366 nM. Moreover, in data set [5] (single agent cytotoxic assay), the IC10 dose level amounted to 151 nM, the IC25 dose level turned out to be 293 nM, the IC75 dose level is 1103 nM and the IC50 was determined as 569 nM.
Consider `Cc1c(N(C(=O)c2cc(-c3cc(Cl)ccc3C(=O)N3Cc4ccccc4C[C@H]3CN3CCOCC3)n(C)c2C)c2ccc(O)cc2)cc(C#N)n1C` [S65487], for which the figures for the IC50 in data set [1] (Homo sapiens) and in data set [2] (Homo sapiens) were 224 nM and 18 nM, respectively. The concentration for an effect of 10% (IC10) in data set [1] was 14.5 nM; in data set [2] it was 2.5 nM. For the same compound, the IC25 is 57 nM in data set [1] and 6.6 nM in data set [2]. Also, the IC75 in data set [1] was found to be 880 nM; in data set [2], 48 nM.
With `CC1(C)CCC(CN2CCN(c3ccc(C(=O)NS(=O)(=O)c4ccc(NCC5CCOCC5)c([N+](=O)[O-])c4)c(Oc4cnc5[nH]ccc5c4)c3)CC2)=C(c2ccc(Cl)cc2)C1` [Ven, Venetoclax], the safety result in data set [7] is given as “safe”. In addition, the 50% inhibitory concentration (IC50) in data set [3] (Homo sapiens, MOLM-13) came to 450 nM; in data set [4] (Homo sapiens) it was 3 nM; in data set [5] (setting [8]), 1650 nM. Besides, the IC10 dose level amounted to 12 nM in data set [3], 0.276 nM in data set [4] and 180 nM in data set [5] (single agent cytotoxic assay). Also, the IC25 dose level was found to be 75 nM in data set [3], 0.829 nM in data set [4] and 550 nM in data set [5] (single agent cytotoxic assay). Besides, the IC75 dose level is 2770 nM in data set [3], 7 nM in data set [4] and 4950 nM in data set [5] (single agent cytotoxic assay).
